Laboratory results taken from ChEMBL document CHEMBL1154623, “S-glycosyl primary sulfonamides--a new structural class for selective inhibition of cancer-associated carbonic anhydrases” (J Med Chem, 2009).
pKi: −log10 of the molar value.

How the values were obtained:
[1] = Apparent effective permeability by PAMPA method; assay type: ADME; settings: read-out: permeability
Carbonic anhydrase 9 = Carbonic anhydrase 9 (Homo sapiens, UniProt Q16790)
Description: Inhibition of human cloned CA9 catalytic domain by stopped flow CO2 hydration assay

[2] = Chemical stability during PAMPA assessed as compound degradation; assay type: physicochemical; settings: read-out: Activity

| Papp [1] [×10⁻⁶ cm/s] | pKi (Carbonic anhydrase 9) | degraded [2] [%] | Compound |
| --- | --- | --- | --- |
| < 0.15 | – | – | CC(=O)Nc1nnc(S(N)(=O)=O)s1 [ACETAZOLAMIDE] |
| < 0.1 | 5.41 | 35 | CC(=O)OC[C@H]1O[C@@H](S(N)(=O)=O)[C@H](OC(C)=O)[C@@H](OC(C)=O)[C@@H]1OC(C)=O |
| – | 5.38 | – | NS(=O)(=O)[C@@H]1O[C@H](CO)[C@@H](O[C@@H]2O[C@H](CO)[C@H](O)[C@H](O)[C@H]2O)[C@H](O)[C@H]1O |
| < 0.5 | 5.37 | – | NS(=O)(=O)[C@@H]1O[C@H](CO)[C@@H](O[C@H]2O[C@H](CO)[C@@H](O)[C@H](O)[C@H]2O)[C@H](O)[C@H]1O |
| – | 5.39 | – | CC(=O)OC[C@H]1O[C@@H](S(N)(=O)=O)[C@H](OC(C)=O)[C@@H](OC(C)=O)[C@H]1OC(C)=O |
| – | 5.39 | – | CC(=O)OC[C@H]1O[C@@H](O[C@H]2[C@H](OC(C)=O)[C@@H](OC(C)=O)[C@H](S(N)(=O)=O)O[C@@H]2COC(C)=O)[C@H](OC(C)=O)[C@@H](OC(C)=O)[C@H]1OC(C)=O |
| 0.54 | – | – | CC1(C)O[C@@H]2[C@@H](CO[C@@]3(COS(N)(=O)=O)OC(C)(C)O[C@@H]23)O1 [TOPIRAMATE] |
| < 0.02 | 5.39 | – | CC(=O)OC[C@H]1O[C@@H](S(N)(=O)=O)[C@H](OC(C)=O)[C@@H](OC(C)=O)[C@@H]1O[C@H]1O[C@H](COC(C)=O)[C@@H](OC(C)=O)[C@H](OC(C)=O)[C@H]1OC(C)=O |

| Compound | Papp [1] [×10⁻⁶ cm/s] | pKi (Carbonic anhydrase 9) | degraded [2] [%] |
| --- | --- | --- | --- |
| COC(=O)[C@H]1O[C@@H](S(N)(=O)=O)[C@H](OC(C)=O)[C@@H](OC(C)=O)[C@@H]1OC(C)=O | – | 5.38 | – |
| NS(=O)(=O)[C@@H]1O[C@H](CO)[C@@H](O)[C@H](O)[C@H]1O | < 0.4 | 5.39 | – |
| NS(=O)(=O)[C@@H]1O[C@H](CO)[C@H](O)[C@H](O)[C@H]1O | – | 5.38 | – |
